“Also recorded” adds a separate entry of the source.
Assays:
[1] = test system: wild strain adult F. hepatica; assay: Ex vivo motility assay on adult liver flukes (wild strain); assay type: cell-based, Fasciola hepatica; details: 40 µM; for Effect on wild strain adult fluke motility, in words: 72 h; for Average motility of 4 parasites with 95% CI at 72 hour time point: wild strain adult flukes, score 1 good/normal to 6 no movement or dead
Protocol: Due to the high number of active molecules and a shortage of Italian strain adult liver flukes, the eleven hit compounds were screened for 72 h at 40 µM (in 0.4% DMSO) on wild strain adult F. hepatica (n = 4/condition) of unknown provenance (Table S3). The protocol for culturing and scoring (motility) the activity of these compounds was previously described (1—good/normal; 2—moderate; 3—resting (less than 10 s pulses of body and head), 4—apathetic (less than 2 s pulses of body and head), 5—paralysis and 6–no movement or dead worms). Six compounds were deemed active in these assays and were selected for further screening.

[2] = test system: F. hepatica newly excysted juveniles (NEJs), Italian strain; assay: Ex vivo screen against newly excysted juveniles (NEJs), phenotype and motility scoring; assay type: cell-based, Fasciola hepatica; details: 10 µM; for Average motility of 25 NEJs with 95% CI, 24 hours / Average motility of 25 NEJs with 95% CI, 48 hours / Average motility of 25 NEJs with 95% CI, 72 hours: motility score 1 good/normal to 5 no movement; for Average phenotype of 25 NEJs with 95% CI, 24 hours / Average phenotype of 25 NEJs with 95% CI, 48 hours / Average phenotype of 25 NEJs with 95% CI, 72 hours: ultrastructure score 1 normal to 6 dead or dissolved; for Activity against NEJs (first screen), in words: 72 h co-culture
Protocol: […] The NEJs were excysted from metacercariae and assayed at 10 μM (in 0.1% DMSO) final concentration alongside negative (0.1% DMSO) and positive (10 μM TCBZ, in 0.1% DMSO) controls as previously described. The MC and IVL compound series were screened separately.
The motility (1—good/normal; 2—moderate; 3—low; 4—very little; 5—no movement) and phenotypic (ultrastructural changes) scores were noted according to a previously described scoring matrix (Figure S1 and Table S2).

SMILES | Effect on wild strain adult fluke motility, in words [1] | Average motility of 4 parasites with 95% CI at 72 hour time point [1] | Average motility of 25 NEJs with 95% CI, 24 hours [2] | Average phenotype of 25 NEJs with 95% CI, 24 hours [2] | Average motility of 25 NEJs with 95% CI, 48 hours [2] | Average phenotype of 25 NEJs with 95% CI, 48 hours [2] | Average motility of 25 NEJs with 95% CI, 72 hours [2] | Average phenotype of 25 NEJs with 95% CI, 72 hours [2] | Activity against NEJs (first screen), in words [2]
CC1(C)CC[C@]2(NC(=O)N3CCCC3)CC[C@]3(C)C(=CCC4[C@@]5(C)CCC6OC(C)(C)OC[C@@]6(C)C5CC[C@]43C)C2C1 (stereo partly drawn) [MC023, N-((4aR,6aR,6bS,8aS,14bR)-2,2,4a,6a,6b,11,11,14b-Octamethyl-4a,5,6,6a,6b,7,8,9,10,11,12,12a,14,14a, 14b,15,16,16a-octadecahydro-4H-piceno[3,4-d][1,3]dioxin-8a(4bH)-yl)-pyrolidine-1-carboxamide] | less severe motility defects | 4.75 (3.5;5.9) | 5.00 (5.0;5.0) | 5.00 (5.0;5.0) | 5.00 (5.0;5.0) | 5.00 (5.0;5.0) | 5.00 (5.0;5.0) | 5.00 (5.0;5.0) | maximal alterations to both phenotype/ultrastructure and motility
CC1(C)CC[C@]2(NC(N)=O)CC[C@]3(C)C(=CCC4[C@@]5(C)CCC6OC(C)(C)OC[C@@]6(C)C5CC[C@]43C)C2C1 (stereo partly drawn) [MC024, 1-((4aR,6aR,6bS,8aS,14bR)-2,2,4a,6a,6b,11,11,14b-Octamethyl-4a,5,6,6a,6b,7,8,9,10,11, 12, 12a,14,14a, 14b,15,16,16a-octadecahydro-4H-piceno[3,4-d][1,3]dioxin-8a(4bH)-yl)urea] | less severe motility defects | 4.25 (3.2;5.7) | 5.00 (5.0;5.0) | 5.00 (5.0;5.0) | 5.00 (5.0;5.0) | 5.00 (5.0;5.0) | 5.00 (5.0;5.0) | 5.00 (5.0;5.0) | maximal alterations to both phenotype/ultrastructure and motility
CCCCCCCCCCCCCCCC(=O)OC[C@]12CCC(C)(C)CC1C1=CCC3[C@@]4(C)CCC5OC(C)(C)OC[C@@]5(C)C4CC[C@@]3(C)[C@]1(C)CC2 (stereo partly drawn) [MC032, ((4aR,6aR,6bS,8aS,14bR)-2,2,4a,6a,6b,11,11,14b-Octamethyl-4a,5,6,6a,6b,7,8,9,10,11,12,12a,14,14a, 14b,15,16,16a-octadecahydro-4H-piceno[3,4-d][1,3]dioxin-8a(4bH)-yl)methyl palmitate] | – | – | 3.20 (2.6;3.7) | 2.52 (1.7;3.3) | 3.12 (2.5;3.6) | 2.64 (1.8;3.4) | 3.12 (2.5;3.7) | 2.80 (2;3.5) | –
CC1(C)CC[C@]2(NC(=O)N3CCC[C@H]3C(=O)O)CC[C@]3(C)C(=CCC4[C@@]5(C)CCC6OC(C)(C)OC[C@@]6(C)C5CC[C@]43C)C2C1 (stereo partly drawn) [MC033, (((4aR,6aR,6bS,8aS,14bR)-2,2,4a,6a,6b,11,11,14b-Octamethyl-4a,5,6,6a,6b,7,8,9,10,11,12,12a,14,14a, 14b,15,16,16a-octadecahydro-4H-piceno[3,4-d][1,3]dioxin-8a(4bH)-yl)carbam-oyl)-L-proline] | – | – | 3.80 (3.4;4.1) | 3.28 (2.7;3.8) | 3.88 (3.5;4.2) | 3.44 (2.8;4) | 3.76 (3.2;4.2) | 4.04 (3.3;4.6) | –
CC(=O)OC[C@]12CCC(C)(C)CC1C1=CCC3[C@@]4(C)CC[C@H](O)[C@@](C)(CO)C4CC[C@@]3(C)[C@]1(C)CC2 (stereo partly drawn) [MC037, ((4aS,6aS,6bR,9R,10S,12aR)-10-Hydroxy-9-(hydroxymethyl)-2,2,6a,6b,9,12a-hexamethyl-1,3,4,5,6,6a, 6b,7,8,8a,9,10,11,12,12a,12b,13,14b-octadecahydropicen-4a(2H)-yl)methyl acetate] | less severe motility defects | 3.25 (2;4.4) | 5.00 (5.0;5.0) | 6.00 (6.0;6.0) | 5.00 (5.0;5.0) | 6.00 (6.0;6.0) | 5.00 (5.0;5.0) | 6.00 (6.0;6.0) | maximal alterations to both phenotype/ultrastructure and motility
CCCCCCCCCCCCCCCC(=O)OC[C@]12CCC(C)(C)CC1C1=CCC3[C@@]4(C)CC[C@H](O)[C@@](C)(CO)C4CC[C@@]3(C)[C@]1(C)CC2 (stereo partly drawn) [MC038, ((4aS,6aS,6bR,9R,10S,12aR)-10-Hydroxy-9-(hydroxymethyl)-2,2,6a,6b,9,12a-hexamethyl-1,3,4,5,6,6a, 6b,7,8,8a,9,10,11,12,12a,12b,13,14b-octadecahydropicen-4a(2H)-yl)methyl palmitate] | – | – | 2.96 (2.3;3.5) | 2.32 (1.7;2.9) | 2.80 (2.2;3.3) | 2.92 (2.1;3.6) | 3.32 (2.7;3.8) | 3.48 (2.7;4.2) | –
COC(=O)[C@H](Cc1c[nH]cn1)NC(=O)N[C@]12CCC(C)(C)CC1C1=CCC3[C@@]4(C)CC[C@@H]5OC(C)(C)OC[C@@]5(C)C4CC[C@@]3(C)[C@]1(C)CC2 (stereo partly drawn) [MC048, Methyl (((4aR,6aR,6bS,8aS,14bR,16aS)-2,2,4a,6a,6b,11,11,14b-octamethyl-4a,5,6,6a,6b,7,8,9,10,11,12, 12a,14,14a,14b,15,16,16a-octadecahydro-4H-piceno[3,4-d][1,3]dioxin-8a(4bH)-yl)carbamoyl)-L-histidinate] | – | – | 1.40 (1.2;1.5) | 1.44 (1.2;1.6) | – | – | 1.96 (1.8;2) | 1.88 (1.7;2) | –
CC(=O)OCC1(C)C(OC(C)=O)CCC2(C)C1CCC1(C)C2CC=C2C3CC(C)(C)CCC3(NC(=O)N3CCCC3)CCC21C (centres unmarked) [MC056] | less severe motility defects; also recorded: limited activity | 4.25 (3.3;5.1) | 5.00 (5.0;5.0) | 6.00 (6.0;6.0) | 5.00 (5.0;5.0) | 6.00 (6.0;6.0) | 5.00 (5.0;5.0) | 6.00 (6.0;6.0) | maximal alterations to both phenotype/ultrastructure and motility
CN(C[C@H](O)[C@@H](O)[C@H](O)[C@H](O)CO)C(=O)N[C@]12CCC(C)(C)CC1C1=CCC3[C@@]4(C)CC[C@@H]5OC(C)(C)OC[C@@]5(C)C4CC[C@@]3(C)[C@]1(C)CC2 (stereo partly drawn) [MC059, 1-Methyl-3-((4aR,6aR,6bS,8aS,14bR,16aS)-2,2,4a,6a,6b,11,11,14b-octamethyl-4a,5,6,6a, 6b,7,8,9,10,11, 12,12a,14,14a,14b,15,16,16a-octadecahydro-4H-piceno[3,4-d][1,3]dioxin-8a(4bH)-yl)-1-((2S,3R,4R,5R)-2,3,4,5,6-pentahydroxyhexyl)urea] | – | – | 2.84 (2.3;3.3) | 2.68 (1.9;3.3) | 3.20 (2.7;3.6) | 3.04 (2.3;3.7) | 3.20 (2.6;3.7) | 3.88 (3.2;4.4) | none reached the level required

— paper PMC10385850, “Modified Hederagenin Derivatives Demonstrate Ex Vivo Anthelmintic Activity against Fasciola hepatica” (Pharmaceutics, 2023)
